Measured values: PubChem BioAssay AID651980 (The Scripps Research Institute Molecular Screening Center, 2013)
Activity calls are given as the source filed them. No rule for the calls is given here.

Assays:
Assay in all cases: PubChem AID 651980
[1] = tested on: AADACL1; details: HEK293T in situ, ABPP-SILAC LC-MS/MS, NHU5 probe, at 5 µM, stronger effect = lower value
[2] = tested on: ABHD10; details: HEK293T in situ, ABPP-SILAC LC-MS/MS, NHU5 probe, at 5 µM, stronger effect = lower value
[3] = tested on: ABHD12; details: HEK293T in situ, ABPP-SILAC LC-MS/MS, NHU5 probe, at 5 µM, stronger effect = lower value
[4] = tested on: ABHD6; details: HEK293T in situ, ABPP-SILAC LC-MS/MS, NHU5 probe, at 5 µM, stronger effect = lower value
[5] = target: Acyl-protein thioesterase 1 (Homo sapiens) (UniProt O75608); details: HEK293T in situ, ABPP-SILAC LC-MS/MS, NHU5 probe; LYPLA1; at 5 µM; stronger effect = lower value
[6] = target: Acyl-protein thioesterase 2 (Homo sapiens) (UniProt O95372); details: HEK293T in situ, ABPP-SILAC LC-MS/MS, NHU5 probe; LYPLA2; at 5 µM; stronger effect = lower value
[7] = target: Acylamino-acid-releasing enzyme (Homo sapiens) (UniProt P13798); details: HEK293T in situ, ABPP-SILAC LC-MS/MS, NHU5 probe; APEH; at 5 µM; stronger effect = lower value
[8] = tested on: CTSA; details: HEK293T in situ, ABPP-SILAC LC-MS/MS, NHU5 probe, at 5 µM, stronger effect = lower value
[9] = target: Dipeptidyl peptidase 9 (Homo sapiens) (UniProt Q86TI2); details: HEK293T in situ, ABPP-SILAC LC-MS/MS, NHU5 probe; DPP9; at 5 µM; stronger effect = lower value
[10] = tested on: ESD; details: HEK293T in situ, ABPP-SILAC LC-MS/MS, NHU5 probe, at 5 µM, stronger effect = lower value
[11] = target: Fatty acid synthase (Homo sapiens) (UniProt P49327); details: HEK293T in situ, ABPP-SILAC LC-MS/MS, NHU5 probe; FASN; at 5 µM; stronger effect = lower value
[12] = tested on: LYPLAL1; details: HEK293T in situ, ABPP-SILAC LC-MS/MS, NHU5 probe, at 5 µM, stronger effect = lower value
[13] = tested on: MGLL; details: HEK293T in situ, ABPP-SILAC LC-MS/MS, NHU5 probe, at 5 µM, stronger effect = lower value
[14] = tested on: PLA2G4A; details: HEK293T in situ, ABPP-SILAC LC-MS/MS, NHU5 probe, at 5 µM, stronger effect = lower value
[15] = tested on: PNPLA6; details: HEK293T in situ, ABPP-SILAC LC-MS/MS, NHU5 probe, at 5 µM, stronger effect = lower value
[16] = tested on: PREP; details: HEK293T in situ, ABPP-SILAC LC-MS/MS, NHU5 probe, at 5 µM, stronger effect = lower value
[17] = target: Protein phosphatase methylesterase 1 (Homo sapiens) (UniProt Q9Y570); details: HEK293T in situ, ABPP-SILAC LC-MS/MS, NHU5 probe; PPME1; at 5 µM; stronger effect = lower value
[18] = tested on: TPP2; details: HEK293T in situ, ABPP-SILAC LC-MS/MS, NHU5 probe, at 5 µM, stronger effect = lower value

Chain of Dipeptidyl peptidase 9 (Homo sapiens) (Q86TI2 whole entry, looked up): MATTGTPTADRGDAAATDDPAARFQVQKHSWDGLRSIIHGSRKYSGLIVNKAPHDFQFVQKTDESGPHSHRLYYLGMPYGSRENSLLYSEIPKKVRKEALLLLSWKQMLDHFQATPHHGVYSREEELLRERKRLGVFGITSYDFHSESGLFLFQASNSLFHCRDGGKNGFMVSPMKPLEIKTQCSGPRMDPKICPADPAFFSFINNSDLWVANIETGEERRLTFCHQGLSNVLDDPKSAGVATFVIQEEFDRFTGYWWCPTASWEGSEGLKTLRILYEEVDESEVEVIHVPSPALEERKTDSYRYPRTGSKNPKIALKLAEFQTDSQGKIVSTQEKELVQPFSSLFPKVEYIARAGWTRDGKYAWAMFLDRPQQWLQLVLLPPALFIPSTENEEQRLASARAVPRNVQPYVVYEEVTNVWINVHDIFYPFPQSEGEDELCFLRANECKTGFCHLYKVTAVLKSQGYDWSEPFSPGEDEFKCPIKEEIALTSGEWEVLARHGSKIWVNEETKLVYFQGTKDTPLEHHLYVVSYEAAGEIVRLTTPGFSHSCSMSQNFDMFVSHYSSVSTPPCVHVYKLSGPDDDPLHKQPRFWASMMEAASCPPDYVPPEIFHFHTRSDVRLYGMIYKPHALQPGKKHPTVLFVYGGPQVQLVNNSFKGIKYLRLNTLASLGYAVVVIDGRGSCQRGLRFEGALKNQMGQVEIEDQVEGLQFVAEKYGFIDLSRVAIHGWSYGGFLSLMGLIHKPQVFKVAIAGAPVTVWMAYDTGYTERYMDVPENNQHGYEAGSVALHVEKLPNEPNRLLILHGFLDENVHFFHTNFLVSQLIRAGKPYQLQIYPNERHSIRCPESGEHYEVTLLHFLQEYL
Chain of Protein phosphatase methylesterase 1 (Homo sapiens) (Q9Y570 whole entry, looked up): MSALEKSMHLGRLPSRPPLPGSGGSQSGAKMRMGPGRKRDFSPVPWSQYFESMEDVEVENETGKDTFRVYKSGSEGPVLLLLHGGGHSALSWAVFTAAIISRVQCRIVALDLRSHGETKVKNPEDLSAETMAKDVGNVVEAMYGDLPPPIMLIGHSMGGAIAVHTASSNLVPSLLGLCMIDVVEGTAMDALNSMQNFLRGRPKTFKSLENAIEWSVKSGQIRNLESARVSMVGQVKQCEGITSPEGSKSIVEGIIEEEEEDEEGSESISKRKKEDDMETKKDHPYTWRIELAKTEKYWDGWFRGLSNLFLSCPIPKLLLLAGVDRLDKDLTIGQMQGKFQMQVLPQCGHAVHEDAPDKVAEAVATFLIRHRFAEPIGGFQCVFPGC
Chain of Acyl-protein thioesterase 2 (Homo sapiens) (O95372 whole entry, looked up): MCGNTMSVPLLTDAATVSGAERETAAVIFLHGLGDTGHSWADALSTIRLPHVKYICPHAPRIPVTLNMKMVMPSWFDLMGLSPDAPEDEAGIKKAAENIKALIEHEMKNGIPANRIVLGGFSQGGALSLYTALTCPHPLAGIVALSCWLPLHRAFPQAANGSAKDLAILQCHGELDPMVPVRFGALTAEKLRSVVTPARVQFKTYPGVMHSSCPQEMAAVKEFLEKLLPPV
Chain of Acylamino-acid-releasing enzyme (Homo sapiens) (P13798 whole entry, looked up): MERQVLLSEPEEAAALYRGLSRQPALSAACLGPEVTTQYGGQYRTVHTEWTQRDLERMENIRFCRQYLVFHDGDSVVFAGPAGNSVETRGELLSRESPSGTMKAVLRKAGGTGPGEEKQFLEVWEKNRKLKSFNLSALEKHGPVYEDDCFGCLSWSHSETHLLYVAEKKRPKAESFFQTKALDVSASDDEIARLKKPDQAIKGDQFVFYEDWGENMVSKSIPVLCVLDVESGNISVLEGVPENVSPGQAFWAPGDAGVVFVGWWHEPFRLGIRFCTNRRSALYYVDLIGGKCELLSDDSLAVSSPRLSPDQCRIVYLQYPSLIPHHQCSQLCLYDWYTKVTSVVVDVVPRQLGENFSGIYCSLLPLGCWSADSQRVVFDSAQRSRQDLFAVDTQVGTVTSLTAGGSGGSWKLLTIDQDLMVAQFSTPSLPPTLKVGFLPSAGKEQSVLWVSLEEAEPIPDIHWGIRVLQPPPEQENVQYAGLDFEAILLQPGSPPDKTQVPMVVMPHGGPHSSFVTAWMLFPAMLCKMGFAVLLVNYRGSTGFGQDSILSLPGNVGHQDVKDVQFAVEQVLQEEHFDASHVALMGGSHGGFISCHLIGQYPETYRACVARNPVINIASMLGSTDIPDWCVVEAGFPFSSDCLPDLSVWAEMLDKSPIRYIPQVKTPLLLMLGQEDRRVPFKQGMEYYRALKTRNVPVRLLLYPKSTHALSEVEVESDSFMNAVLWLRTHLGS
Chain of Acyl-protein thioesterase 1 (Homo sapiens) (O75608 whole entry, looked up): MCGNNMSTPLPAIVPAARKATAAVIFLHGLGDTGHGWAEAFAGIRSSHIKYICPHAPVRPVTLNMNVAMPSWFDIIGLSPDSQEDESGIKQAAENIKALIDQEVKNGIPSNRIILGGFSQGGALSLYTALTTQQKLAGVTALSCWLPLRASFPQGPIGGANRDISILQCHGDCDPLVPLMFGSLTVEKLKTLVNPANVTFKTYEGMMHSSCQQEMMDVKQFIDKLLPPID
Chain of Fatty acid synthase (Homo sapiens) (P49327 whole entry, looked up): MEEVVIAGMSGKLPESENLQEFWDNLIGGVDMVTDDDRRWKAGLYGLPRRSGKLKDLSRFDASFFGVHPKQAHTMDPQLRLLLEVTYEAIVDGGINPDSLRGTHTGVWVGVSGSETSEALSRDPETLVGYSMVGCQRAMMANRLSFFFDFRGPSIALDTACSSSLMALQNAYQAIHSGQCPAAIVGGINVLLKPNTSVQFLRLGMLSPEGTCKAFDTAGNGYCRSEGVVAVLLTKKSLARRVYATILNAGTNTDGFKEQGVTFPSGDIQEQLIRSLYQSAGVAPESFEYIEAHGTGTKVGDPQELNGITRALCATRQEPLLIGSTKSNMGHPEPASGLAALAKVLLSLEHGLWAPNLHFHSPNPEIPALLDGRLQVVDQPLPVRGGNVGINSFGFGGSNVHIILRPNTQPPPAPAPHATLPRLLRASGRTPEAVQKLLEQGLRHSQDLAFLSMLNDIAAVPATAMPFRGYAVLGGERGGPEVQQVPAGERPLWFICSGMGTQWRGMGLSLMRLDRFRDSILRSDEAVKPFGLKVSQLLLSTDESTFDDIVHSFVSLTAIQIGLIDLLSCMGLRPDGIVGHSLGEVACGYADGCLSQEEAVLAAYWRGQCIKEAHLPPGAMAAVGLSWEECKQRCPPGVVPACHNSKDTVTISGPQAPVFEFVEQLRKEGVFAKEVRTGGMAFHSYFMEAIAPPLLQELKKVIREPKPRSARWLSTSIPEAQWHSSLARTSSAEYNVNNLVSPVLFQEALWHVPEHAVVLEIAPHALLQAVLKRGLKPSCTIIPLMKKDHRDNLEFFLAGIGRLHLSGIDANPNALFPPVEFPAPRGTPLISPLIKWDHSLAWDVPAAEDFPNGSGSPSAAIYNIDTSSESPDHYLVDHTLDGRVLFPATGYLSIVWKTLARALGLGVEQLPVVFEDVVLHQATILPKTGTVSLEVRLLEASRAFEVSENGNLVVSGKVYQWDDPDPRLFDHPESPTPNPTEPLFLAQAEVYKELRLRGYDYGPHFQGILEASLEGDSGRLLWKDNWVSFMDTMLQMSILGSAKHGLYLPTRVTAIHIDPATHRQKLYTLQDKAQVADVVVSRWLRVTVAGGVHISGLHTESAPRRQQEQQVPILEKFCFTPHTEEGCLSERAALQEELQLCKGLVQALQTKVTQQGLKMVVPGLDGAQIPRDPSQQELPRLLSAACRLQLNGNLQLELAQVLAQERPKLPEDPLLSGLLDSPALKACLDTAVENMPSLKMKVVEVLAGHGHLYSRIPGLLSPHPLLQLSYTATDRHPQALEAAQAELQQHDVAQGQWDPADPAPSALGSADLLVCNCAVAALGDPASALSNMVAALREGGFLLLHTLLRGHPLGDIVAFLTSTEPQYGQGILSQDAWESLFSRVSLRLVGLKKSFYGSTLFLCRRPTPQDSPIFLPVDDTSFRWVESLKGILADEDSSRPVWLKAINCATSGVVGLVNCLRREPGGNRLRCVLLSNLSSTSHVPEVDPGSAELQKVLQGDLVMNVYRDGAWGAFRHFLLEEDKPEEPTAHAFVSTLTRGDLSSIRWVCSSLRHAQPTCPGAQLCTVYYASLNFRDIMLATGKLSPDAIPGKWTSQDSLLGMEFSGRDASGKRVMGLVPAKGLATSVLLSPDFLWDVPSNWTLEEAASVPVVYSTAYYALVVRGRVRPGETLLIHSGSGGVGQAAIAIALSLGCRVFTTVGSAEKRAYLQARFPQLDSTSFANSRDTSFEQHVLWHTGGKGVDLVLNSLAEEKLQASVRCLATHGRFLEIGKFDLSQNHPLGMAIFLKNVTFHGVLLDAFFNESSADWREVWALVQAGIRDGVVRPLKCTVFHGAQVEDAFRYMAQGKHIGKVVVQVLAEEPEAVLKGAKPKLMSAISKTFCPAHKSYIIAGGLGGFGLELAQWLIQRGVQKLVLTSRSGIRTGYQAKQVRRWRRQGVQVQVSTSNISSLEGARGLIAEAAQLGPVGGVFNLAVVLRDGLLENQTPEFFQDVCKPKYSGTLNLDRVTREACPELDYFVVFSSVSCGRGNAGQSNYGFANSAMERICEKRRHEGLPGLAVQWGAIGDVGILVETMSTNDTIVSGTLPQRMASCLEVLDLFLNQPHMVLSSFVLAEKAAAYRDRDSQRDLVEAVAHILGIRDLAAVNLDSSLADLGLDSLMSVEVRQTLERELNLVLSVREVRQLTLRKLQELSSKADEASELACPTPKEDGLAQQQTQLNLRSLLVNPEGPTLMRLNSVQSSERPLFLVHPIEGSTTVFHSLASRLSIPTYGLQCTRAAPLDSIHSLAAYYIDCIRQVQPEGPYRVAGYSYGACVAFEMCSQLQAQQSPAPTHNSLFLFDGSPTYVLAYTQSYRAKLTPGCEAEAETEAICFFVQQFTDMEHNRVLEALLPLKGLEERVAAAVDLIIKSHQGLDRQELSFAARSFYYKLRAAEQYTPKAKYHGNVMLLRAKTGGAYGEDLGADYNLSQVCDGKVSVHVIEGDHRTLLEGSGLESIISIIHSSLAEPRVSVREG

remaining activity ratio (inhibitor/DMSO) [1]: 1.14 (inactive)
remaining activity ratio (inhibitor/DMSO) [2]: 1.21 (inactive)
remaining activity ratio (inhibitor/DMSO) [3]: 1.24 (inactive)
remaining activity ratio (inhibitor/DMSO) [4]: 1.37 (inactive)
remaining activity ratio (inhibitor/DMSO) [5]: 1.12 (inactive)
remaining activity ratio (inhibitor/DMSO) [6]: 0.25
remaining activity ratio (inhibitor/DMSO) [7]: 1.23 (inactive)
remaining activity ratio (inhibitor/DMSO) [8]: 1.29 (inactive)
remaining activity ratio (inhibitor/DMSO) [9]: 1.17 (inactive)
remaining activity ratio (inhibitor/DMSO) [10]: 1.17 (inactive)
remaining activity ratio (inhibitor/DMSO) [11]: 1.15 (inactive)
remaining activity ratio (inhibitor/DMSO) [12]: 1.23 (inactive)
remaining activity ratio (inhibitor/DMSO) [13]: 0.94 (inactive)
remaining activity ratio (inhibitor/DMSO) [14]: 1.44 (inactive)
remaining activity ratio (inhibitor/DMSO) [15]: 1.27 (inactive)
remaining activity ratio (inhibitor/DMSO) [16]: 1.05 (inactive)
remaining activity ratio (inhibitor/DMSO) [17]: 1.13 (inactive)
remaining activity ratio (inhibitor/DMSO) [18]: 1.1 (inactive)
Structure (SMILES): COc1ccc(N2CCN(C(=O)c3cc4c(s3)-c3ccccc3S(=O)(=O)C4)CC2)cc1
